Earlier results, collected in patent publication US20040171664A1, “Compositions of cyclooxygenase-2 selective inhibitors and selective serotonin reuptake inhibitors for the treatment or prevention of a vaso-occlusive event” (Pharmacia Corporation, priority 2002, published 2004).

Tests used:
[1] = tested on: coronary intimal proliferation; conditions: oral administration, swine model of restenosis
[2] = tested on: vascular smooth muscle cells; conditions: in vitro
[3] = both depressed and nondepressed patients
[4] = single dose intravenous pretreatment before coronary stenting
[5] = tested on: platelet activation; conditions: Pollock et al. 2000
[6] = tested on: restenosis; conditions: orally administered, stent implanted pig arteries

For CN(C)CCCO[C@@H]1[C@H]2OC(C)(C)O[C@H]2O[C@@H]1[C@H](O)CO.Cl [aniprilose hydrochloride], the coronary intimal proliferation [1] is listed as “did not prevent”.
In the case of COc1cc(/C=C/C(=O)CC(=O)/C=C/c2ccc(O)c(OC)c2)ccc1O [curcumin], the “proliferation of vascular smooth muscle cells” value [2] is given as “reduced”.
In the case of CNCCC(Oc1ccc(C(F)(F)F)cc1)c1ccccc1 (stereo not shown) [fluoxetine], the “survival of stroke patients” value [3] is listed as “increased the survival”.
In the case of C[C@H]1C[C@@H]2[C@H]([C@@H](O)C[C@@]3(C)[C@H]2CC[C@]3(O)C(=O)CO)[C@@]2(C)C=CC(=O)C=C12 [methylpridnisolone], the “change in minimal lumen diameter at 6 months” value [4] is listed as “no effect”.
In the case of CNCCC=C1c2ccccc2CCc2ccccc21 [nortriptyline], the “survival of stroke patients” value [3] is given as “increased the survival”.
For CN[C@H]1CC[C@@H](c2ccc(Cl)c(Cl)c2)c2ccccc21 [sertraline], the preventing platelet activation [5] is given as “particularly effective”.
In the case of COc1ccc(C=CC(=O)Nc2ccccc2C(=O)O)cc1OC [tranilast, N-(3,4-dimethoxycinnamoyl) anthranilic acid], the rate of restenosis [6] is listed as “lower rate”.
